Target: isolated activated GpIIb/IIIa receptor (Homo sapiens, UniProt P05106+P08514)
Assay: GpIIb/IIIa-Fibrinogen-ELISA (inhibition of fibrinogen binding to coated receptor)
Details: inhibition of fibrinogen-GpIIb/IIIa interaction, O.D. at 405 nm
Experimental: Microtitre plates are coated overnight with 2 μg/ml isolated activated GpIIb/IIIa receptor. After removing the unbound receptor by several washing steps, the surface of the plates is blocked with 1% casein and washed again. The test substance is added in the required concentrations and the plates are incubated for 10 minutes while shaking in a linear shaker. The natural ligand of the gpIIb/IIIa receptor, fibrinogen, is added. After 1 hour of incubation the unbound fibrinogen is removed by several washing steps and bound fibrinogen is detected by a peroxidase-conjugated anti-fibrinogen monoclonal antibody by measuring the O.D. at 405 nm in an ELISA-reader. Inhibition of fibrinogen-GpIIb/IIIa interaction results in a low O.D. An IC50 is calculated in relation to a concentration-effect curve.
The GpIIb/IIIa-Fibrinogen-ELISA is a modification of the assays described in the following literature:
Nachman, R. L. & Leung, L. L. K. (1982): Complex formation of platelet membrane glycoproteins IIb and IIIa with fibrinogen. J. Clin. Invest. 69:263-269. Wright, P. S. et al. (1993): An echistatin C-terminal peptide activated GpIIbIIIa binding to fibrinogen, fibronectin, vitronectin and collagen type I and type IV. Biochem. J. 293:263-276.

Chain of isolated activated GpIIb/IIIa receptor (P08514 32-887 limits assumed): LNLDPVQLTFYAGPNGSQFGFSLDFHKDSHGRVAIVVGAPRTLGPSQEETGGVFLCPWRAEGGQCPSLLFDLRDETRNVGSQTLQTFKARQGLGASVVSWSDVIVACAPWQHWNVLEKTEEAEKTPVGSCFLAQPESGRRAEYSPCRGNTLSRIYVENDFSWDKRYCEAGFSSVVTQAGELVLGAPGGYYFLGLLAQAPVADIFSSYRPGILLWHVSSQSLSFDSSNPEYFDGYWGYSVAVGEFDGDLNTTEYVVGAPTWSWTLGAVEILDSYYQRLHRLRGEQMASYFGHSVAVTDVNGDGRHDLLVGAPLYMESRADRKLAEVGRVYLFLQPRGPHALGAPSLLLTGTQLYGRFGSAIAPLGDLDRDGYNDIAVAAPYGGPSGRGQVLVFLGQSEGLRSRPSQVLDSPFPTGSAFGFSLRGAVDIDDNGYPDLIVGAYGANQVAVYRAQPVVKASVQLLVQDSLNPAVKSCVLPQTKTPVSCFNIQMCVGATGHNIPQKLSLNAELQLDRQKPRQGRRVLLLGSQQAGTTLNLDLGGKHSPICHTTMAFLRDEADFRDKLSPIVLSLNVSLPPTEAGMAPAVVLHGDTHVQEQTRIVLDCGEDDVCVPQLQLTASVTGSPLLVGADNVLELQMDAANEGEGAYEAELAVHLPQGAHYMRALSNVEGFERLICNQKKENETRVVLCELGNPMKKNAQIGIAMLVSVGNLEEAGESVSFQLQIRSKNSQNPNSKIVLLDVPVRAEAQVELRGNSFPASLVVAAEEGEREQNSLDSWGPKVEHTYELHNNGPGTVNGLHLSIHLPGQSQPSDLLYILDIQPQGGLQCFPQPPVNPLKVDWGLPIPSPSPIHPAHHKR
Chain of isolated activated GpIIb/IIIa receptor (P08514 891-1039 partner limits assumed): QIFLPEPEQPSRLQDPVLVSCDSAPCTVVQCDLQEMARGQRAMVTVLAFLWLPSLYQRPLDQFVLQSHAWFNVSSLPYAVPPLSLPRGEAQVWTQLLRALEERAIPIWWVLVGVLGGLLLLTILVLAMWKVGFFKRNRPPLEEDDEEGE
Chain of isolated activated GpIIb/IIIa receptor (P05106 27-788): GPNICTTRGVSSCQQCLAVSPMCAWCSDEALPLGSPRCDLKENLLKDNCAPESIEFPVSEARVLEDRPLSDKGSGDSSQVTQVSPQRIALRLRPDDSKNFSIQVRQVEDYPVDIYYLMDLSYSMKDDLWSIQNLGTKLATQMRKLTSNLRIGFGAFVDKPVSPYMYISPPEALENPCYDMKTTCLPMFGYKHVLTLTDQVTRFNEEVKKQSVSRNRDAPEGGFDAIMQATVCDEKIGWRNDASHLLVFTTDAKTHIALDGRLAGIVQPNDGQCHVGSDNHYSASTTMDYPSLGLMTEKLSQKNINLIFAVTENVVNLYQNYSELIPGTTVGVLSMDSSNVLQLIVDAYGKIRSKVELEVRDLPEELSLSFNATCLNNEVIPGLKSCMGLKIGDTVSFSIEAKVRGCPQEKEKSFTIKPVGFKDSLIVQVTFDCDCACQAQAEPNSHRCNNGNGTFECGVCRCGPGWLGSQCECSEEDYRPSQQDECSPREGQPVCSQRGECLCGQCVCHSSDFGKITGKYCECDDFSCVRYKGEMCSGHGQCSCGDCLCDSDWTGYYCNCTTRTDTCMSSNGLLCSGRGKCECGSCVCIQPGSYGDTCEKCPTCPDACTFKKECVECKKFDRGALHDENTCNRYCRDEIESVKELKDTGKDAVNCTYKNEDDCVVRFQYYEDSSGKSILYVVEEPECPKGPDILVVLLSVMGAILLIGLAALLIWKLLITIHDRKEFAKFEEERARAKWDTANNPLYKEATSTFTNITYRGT

Structure (SMILES) | IC50
O=C(O)CC1CCC(CCN2CCN(c3ccncc3)CC2)CC1 (centres unmarked) [Example 4, {4-[2-(4-Pyridin-4-yl-piperazin-1-yl)-ethyl]-cyclohexyl} -acetic acid] | 100 nM
O=C(O)CC1(O)CCC(N2CCN(c3ccncc3)CC2)CC1 (stereo not drawn) [cis-1-hydroxy-4-[4-(4-pyridyl)-piperazin-1-yl] -acetic acid] | 2500 nM

Source: patent US20010009912A1, “NEW DERIVATIVES OF PYRIDIL PIPERAZINE OR PYRIDAZINYL PIPERAZYL, PROCESS FOR PRODUCTION THEREOF AND MEDICAMENTS CONTAINING THESE COMPOUNDS” (priority 1995, published 2001)
